Assay results taken from patent publication US20160289186A1, “FLUOROMETHYL-SUBSTITUTED PYRROLE CA[…]” (Grunenthal GmbH, priority 2013, published 2016).

Biological target: T1, Human CaV2.2 channels (Homo sapiens, UniProt Q00975)
T1 construct: expressed in transfected cells; host or cells: HEK293
Assay: Fluorescent (FLIPR) assay for CaV2.2 channels using potassium depolarization to induce channel opening
Assay type: cell-based
Settings: 3 μM compound; 30 mM KCl assay buffer (inactivated channel state); HEK293 cells stably expressing human CaV2.2; read-out: Activity Category: %-Inhib (CaV2.2) @3 μM @30 mM KCl
Description: In the process, the Ca^2+ influx is quantified in the FLIPR assay with the aid of a Ca^2+-sensitive dye (type Fluo-4, Molecular Probes Europe BV, Leiden, the Netherlands) in a fluorescent imaging plate reader (FLIPR 3, Molecular Devices, Sunnyvale, USA), as described hereinafter.
Human CaV2.2 channels were stably expressed in HEK293 cells together with alpha2-delta and beta subunits of voltage gated calcium channels. In addition, an inwardly rectifying potassium channel (Kir2.3) was stably expressed in these cells to augment control of the cell membrane potential by the concentration of extracellular potassium ions. Raise of the extracellular potassium concentration leads to depolarization of the membrane potential and thus regulates the voltage dependent state of CaV2.2 channels. For preparation, cells were seeded in black poly-D-lysine coated 96-well plates (Becton Dickinson, Biocoat 4640) in 100 μL medium [500 mL DMEM/F-12 plus Glutamax (Invitrogen 31331-093) plus 5.5 mL MEM NEAA 100× (Invitrogen 11140-035) plus 50 mL FBS decomplemented (Invitrogen 10270-106) plus 200 μg/mL Geneticin (Invitrogen 10131-027) plus 50 μg/mL Hygromycin B (Invitrogen 10687-010) plus 2 μg/mL Blasticidin (anti-bl5b Invivo-Gen) plus 0.2 μg/mL Puromycin (A 11138-03)] at a cell density of 30.000 cells per well. Plates were incubated at 37° C. (5% CO2) for 20 to 23 h. On the day of experiment medium was discarded and cells were loaded with Fluo 4 by addition of 100 μL of basic assay buffer (10 mM HEPES, 1 mM KCl, 149 mM NaCl, 0.8 mM CaCl2, 1.7 mM MgCl2, 10 mM Glucose, 0.1% BSA. pH 7.4) containing 2 μM Fluo 4 (Molecular Probes; F-14201), 0.01% pluronic acid (Molecular Probes; P-6866) and 2.5 mM probenecid (Molecular Probes; P36400). Cells were incubated in the dark at 25° C. for 60 min. Then dye containing buffer was discarded and 100 μL basic (1 mM KCl) or alternative (30 mM KCl) assay buffer was added. The alternative assay buffer contained altered concentrations of KCl (30 mM) and NaCl (120 mM) and was used in order to promote the inactivated channel state. After that 25 μL of basic or alternative assay buffer with or without test compound were added and cells were incubated again in the dark at 25° C. for 15 min. Fluorescence intensity was measured on a FLIPR 3 instrument (Molecular Devices Corp., Sunnyvale, Calif.) with excitation at 480 nm and emission at 535 nm. After continuously reading fluorescence for 30 sec, 50 μL of basic assay buffer containing 210 mM KCl (NaCl omitted) were added for depolarization. Peak fluorescent signal intensity was determined and the amplitude of the peak signal, normalized to base line, was used to measure channel inhibition by test compounds.

T1 sequence (Q00975 whole entry): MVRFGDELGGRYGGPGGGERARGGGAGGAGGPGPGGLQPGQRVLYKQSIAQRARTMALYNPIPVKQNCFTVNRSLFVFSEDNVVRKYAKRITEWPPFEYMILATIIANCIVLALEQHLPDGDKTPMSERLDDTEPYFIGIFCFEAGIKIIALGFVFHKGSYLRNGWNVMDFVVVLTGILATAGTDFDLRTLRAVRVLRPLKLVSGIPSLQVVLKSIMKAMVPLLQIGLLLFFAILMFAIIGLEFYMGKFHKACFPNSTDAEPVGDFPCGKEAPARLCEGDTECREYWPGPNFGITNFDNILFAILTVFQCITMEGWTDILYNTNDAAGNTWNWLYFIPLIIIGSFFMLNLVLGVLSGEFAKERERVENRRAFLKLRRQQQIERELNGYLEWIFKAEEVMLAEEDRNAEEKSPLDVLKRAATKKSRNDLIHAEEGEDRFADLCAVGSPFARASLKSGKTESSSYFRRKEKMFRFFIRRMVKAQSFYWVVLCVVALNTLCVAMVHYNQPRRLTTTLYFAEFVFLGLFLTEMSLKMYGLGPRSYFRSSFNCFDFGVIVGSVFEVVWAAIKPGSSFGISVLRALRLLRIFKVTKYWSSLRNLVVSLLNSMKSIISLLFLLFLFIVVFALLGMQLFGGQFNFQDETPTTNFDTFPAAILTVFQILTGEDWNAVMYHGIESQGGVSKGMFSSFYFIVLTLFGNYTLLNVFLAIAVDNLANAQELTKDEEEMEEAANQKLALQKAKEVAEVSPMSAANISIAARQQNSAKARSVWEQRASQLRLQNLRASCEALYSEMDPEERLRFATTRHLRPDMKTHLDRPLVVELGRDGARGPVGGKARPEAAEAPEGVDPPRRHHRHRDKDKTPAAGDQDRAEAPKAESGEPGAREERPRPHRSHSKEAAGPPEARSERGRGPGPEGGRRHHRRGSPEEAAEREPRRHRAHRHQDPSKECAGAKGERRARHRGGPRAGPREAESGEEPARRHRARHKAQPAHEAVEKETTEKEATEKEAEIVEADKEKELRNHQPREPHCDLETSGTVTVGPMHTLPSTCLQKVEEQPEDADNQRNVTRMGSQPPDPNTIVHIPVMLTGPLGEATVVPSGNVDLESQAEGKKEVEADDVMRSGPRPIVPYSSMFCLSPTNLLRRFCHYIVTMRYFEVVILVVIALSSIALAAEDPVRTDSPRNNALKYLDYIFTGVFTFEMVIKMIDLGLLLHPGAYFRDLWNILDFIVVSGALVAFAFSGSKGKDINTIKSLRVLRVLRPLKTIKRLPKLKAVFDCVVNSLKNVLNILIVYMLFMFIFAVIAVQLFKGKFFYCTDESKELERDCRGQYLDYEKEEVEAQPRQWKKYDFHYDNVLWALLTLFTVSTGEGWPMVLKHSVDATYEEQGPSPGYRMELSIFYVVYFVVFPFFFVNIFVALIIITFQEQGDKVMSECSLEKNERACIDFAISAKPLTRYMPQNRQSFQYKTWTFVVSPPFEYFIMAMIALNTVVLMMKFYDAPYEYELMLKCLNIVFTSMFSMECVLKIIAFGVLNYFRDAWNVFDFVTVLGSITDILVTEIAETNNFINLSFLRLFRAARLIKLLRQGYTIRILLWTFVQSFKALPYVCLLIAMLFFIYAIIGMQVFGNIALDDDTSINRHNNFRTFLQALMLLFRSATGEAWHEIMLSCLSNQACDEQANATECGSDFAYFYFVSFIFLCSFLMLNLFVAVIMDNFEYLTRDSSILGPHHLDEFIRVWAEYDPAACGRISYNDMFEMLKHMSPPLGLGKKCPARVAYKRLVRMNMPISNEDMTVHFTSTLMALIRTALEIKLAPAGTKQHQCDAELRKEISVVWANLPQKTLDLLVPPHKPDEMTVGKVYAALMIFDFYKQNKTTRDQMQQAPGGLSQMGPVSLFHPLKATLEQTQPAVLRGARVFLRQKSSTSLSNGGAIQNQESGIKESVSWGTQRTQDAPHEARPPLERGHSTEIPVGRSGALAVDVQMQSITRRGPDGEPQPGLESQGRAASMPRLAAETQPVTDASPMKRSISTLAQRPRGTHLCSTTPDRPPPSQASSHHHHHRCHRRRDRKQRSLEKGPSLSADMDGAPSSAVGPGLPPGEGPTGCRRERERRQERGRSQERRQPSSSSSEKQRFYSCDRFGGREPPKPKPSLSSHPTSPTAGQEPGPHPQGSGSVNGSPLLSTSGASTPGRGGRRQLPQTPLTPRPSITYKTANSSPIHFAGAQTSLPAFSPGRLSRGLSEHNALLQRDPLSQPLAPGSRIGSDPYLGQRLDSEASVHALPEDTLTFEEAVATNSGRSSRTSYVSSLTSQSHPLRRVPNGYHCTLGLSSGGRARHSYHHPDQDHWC
T1 sequence (P54284 whole entry, further chain): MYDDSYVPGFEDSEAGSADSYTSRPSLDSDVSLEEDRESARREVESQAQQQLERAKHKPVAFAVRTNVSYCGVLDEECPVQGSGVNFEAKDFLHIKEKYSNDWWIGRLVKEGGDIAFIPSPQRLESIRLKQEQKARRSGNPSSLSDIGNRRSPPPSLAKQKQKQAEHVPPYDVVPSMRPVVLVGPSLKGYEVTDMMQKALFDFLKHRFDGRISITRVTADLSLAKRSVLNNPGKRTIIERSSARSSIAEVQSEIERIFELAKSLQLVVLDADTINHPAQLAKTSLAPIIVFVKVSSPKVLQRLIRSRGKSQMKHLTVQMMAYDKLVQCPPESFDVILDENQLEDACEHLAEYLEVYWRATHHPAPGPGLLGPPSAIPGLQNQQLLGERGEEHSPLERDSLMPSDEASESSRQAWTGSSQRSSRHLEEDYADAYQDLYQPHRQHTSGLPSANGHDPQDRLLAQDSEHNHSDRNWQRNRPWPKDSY
T1 sequence (P54289 25-1103, further chain): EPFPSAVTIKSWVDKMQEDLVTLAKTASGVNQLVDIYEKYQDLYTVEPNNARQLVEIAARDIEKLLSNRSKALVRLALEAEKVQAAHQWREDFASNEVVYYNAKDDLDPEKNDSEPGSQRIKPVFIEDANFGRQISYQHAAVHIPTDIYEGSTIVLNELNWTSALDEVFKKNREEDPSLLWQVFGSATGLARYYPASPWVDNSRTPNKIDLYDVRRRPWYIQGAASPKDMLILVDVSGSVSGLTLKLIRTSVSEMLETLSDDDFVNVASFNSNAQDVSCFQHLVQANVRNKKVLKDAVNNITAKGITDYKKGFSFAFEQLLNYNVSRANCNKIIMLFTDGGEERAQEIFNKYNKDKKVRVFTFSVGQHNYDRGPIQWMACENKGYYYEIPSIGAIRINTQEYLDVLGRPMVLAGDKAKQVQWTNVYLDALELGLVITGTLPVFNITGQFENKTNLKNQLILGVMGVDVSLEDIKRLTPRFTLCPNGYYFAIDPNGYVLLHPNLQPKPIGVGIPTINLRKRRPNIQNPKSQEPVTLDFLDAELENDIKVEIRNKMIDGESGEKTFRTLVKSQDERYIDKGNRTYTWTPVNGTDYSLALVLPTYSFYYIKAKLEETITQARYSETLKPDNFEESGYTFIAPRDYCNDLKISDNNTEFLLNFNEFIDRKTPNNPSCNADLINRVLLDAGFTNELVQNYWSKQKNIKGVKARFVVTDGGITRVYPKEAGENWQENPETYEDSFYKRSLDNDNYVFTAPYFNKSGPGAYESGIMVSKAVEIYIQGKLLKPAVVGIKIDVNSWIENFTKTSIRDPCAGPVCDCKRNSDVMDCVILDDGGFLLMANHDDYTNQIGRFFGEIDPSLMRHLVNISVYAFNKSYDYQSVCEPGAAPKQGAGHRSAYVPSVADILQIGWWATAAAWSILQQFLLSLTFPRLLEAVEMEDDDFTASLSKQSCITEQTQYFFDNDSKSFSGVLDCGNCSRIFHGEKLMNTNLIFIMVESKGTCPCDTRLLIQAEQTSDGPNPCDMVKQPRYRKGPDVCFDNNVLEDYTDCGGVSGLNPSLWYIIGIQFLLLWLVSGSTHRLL

| SMILES | inhibition at 3 µM [%] |
| --- | --- |
| O=C(c1c(-c2ccc(Cl)cc2)cc(C(F)(F)F)n1C1CC1)N1CC(O)C1 [Example 026, [3-(4-Chlorophenyl)-1-cyclopropyl-5-(trifluoromethyl)-1H-pyrrol-2-yl]-(3-hydroxy-azetidin-1-yl)-methanone] | 40 to 75 |
| Cc1noc(C2CCN(C(=O)c3c(-c4ccc(Cl)cc4)c(C)c(C(F)(F)F)n3C3CC3)CC2)n1 [Example 027, [3-(4-Chlorophenyl)-1-cyclopropyl-4-methyl-5-(trifluoromethyl)-1H-pyrrol-2-yl]-[4-(3-methyl-[1,2,4]oxadiazol-5-yl)-piperidin-1-yl]-methanone] | 75 to 95 |
| Cc1noc(C2CCN(C(=O)c3c(-c4ccc(Cl)cc4F)c(C)c(C(F)(F)F)n3C3CC3)CC2)n1 [Example 028, [3-(4-Chloro-2-fluoro-phenyl)-1-cyclopropyl-4-methyl-5-(trifluoromethyl)-1H-pyrrol-2-yl]-[4-(3-methyl-[1,2,4]oxadiazol-5-yl)-piperidin-1-yl]-methanone] | 75 to 95 |
| Cc1noc(C2CCN(C(=O)c3c(-c4ccc(Cl)cc4)cc(C(F)(F)F)n3C3CC3)CC2)n1 [Example 029, [3-(4-Chlorophenyl)-1-cyclopropyl-5-(trifluoromethyl)-1H-pyrrol-2-yl]-[4-(3-methyl-[1,2,4]oxadiazol-5-yl)-piperidin-1-yl]-methanone] | 75 to 95 |
| Cc1c(-c2ccc(Cl)cc2)c(C(=O)N2CCOC(C)(C)C2)n(C2CC2)c1C(F)(F)F [Example 032, [3-(4-Chlorophenyl)-1-cyclopropyl-4-methyl-5-(trifluoromethyl)-1H-pyrrol-2-yl]-(2,2-dimethyl-morpholin-4-yl)-methanone] | > 95 |
| Cc1c(-c2ccc(Cl)cc2F)c(C(=O)N2CCOC(C)(C)C2)n(C2CC2)c1C(F)(F)F [Example 033, [3-(4-Chloro-2-fluoro-phenyl)-1-cyclopropyl-4-methyl-5-(trifluoromethyl)-1H-pyrrol-2-yl]-(2,2-dimethyl-morpholin-4-yl)-methanone] | 75 to 95 |
| CC1(C)CN(C(=O)c2c(-c3ccc(Cl)cc3)cc(C(F)(F)F)n2C2CC2)CCO1 [Example 034, [3-(4-Chlorophenyl)-1-cyclopropyl-5-(trifluoromethyl)-1H-pyrrol-2-yl]-(2,2-dimethyl-morpholin-4-yl)-methanone] | 75 to 95 |
| CN(CC(C)(C)C)C(=O)c1c(-c2ccc(Cl)cc2)cc(C(F)(F)F)n1C1CC1 [Example 035, 3-(4-Chlorophenyl)-1-cyclopropyl-N-(2,2-dimethyl-propyl)-N-methyl-5-(trifluoromethyl)-1H-pyrrole-2-carboxylic acid amide] | 40 to 75 |
| CN(CC(C)(C)CO)C(=O)c1c(-c2ccc(Cl)cc2)cc(C(F)(F)F)n1C1CC1 [Example 036, 3-(4-Chlorophenyl)-1-cyclopropyl-N-(3-hydroxy-2,2-dimethyl-propyl)-N-methyl-5-(trifluoromethyl)-1H-pyrrole-2-carboxylic acid amide] | 75 to 95 |
| CN(CCS(C)(=O)=O)C(=O)c1c(-c2ccc(Cl)cc2)cc(C(F)(F)F)n1C1CC1 [Example 037, 3-(4-Chlorophenyl)-1-cyclopropyl-N-methyl-N-(2-methylsulfonyl-ethyl)-5-(trifluoromethyl)-1H-pyrrole-2-carboxylic acid amide] | 40 to 75 |
| O=C(c1c(-c2ccc(Cl)cc2)cc(C(F)(F)F)n1C1CC1)N1CCOCC1 [Example 038, [3-(4-Chlorophenyl)-1-cyclopropyl-5-(trifluoromethyl)-1H-pyrrol-2-yl]-morpholin-4-yl-methanone] | 40 to 75 |
| Cc1c(-c2ccc(Cl)cc2)c(C(=O)N(C)CC(C)(C)C)n(C2CC2)c1C(F)(F)F [Example 039, 3-(4-Chlorophenyl)-1-cyclopropyl-N-(2,2-dimethyl-propyl)-N,4-dimethyl-5-(trifluoromethyl)-1H-pyrrole-2-carboxylic acid amide] | 75 to 95 |
| Cc1c(-c2ccc(Cl)cc2)c(C(=O)N(C)CC(C)(C)CO)n(C2CC2)c1C(F)(F)F [Example 040, 3-(4-Chlorophenyl)-1-cyclopropyl-N-(3-hydroxy-2,2-dimethyl-propyl)-N,4-dimethyl-5-(trifluoromethyl)-1H-pyrrole-2-carboxylic acid amide] | 75 to 95 |
| Cc1c(-c2ccc(Cl)cc2)c(C(=O)N(C)CCS(C)(=O)=O)n(C2CC2)c1C(F)(F)F [Example 041, 3-(4-Chlorophenyl)-1-cyclopropyl-N,4-dimethyl-N-(2-methylsulfonyl-ethyl)-5-(trifluoromethyl)-1H-pyrrole-2-carboxylic acid amide] | 75 to 95 |
| Cc1c(-c2ccc(Cl)cc2)c(C(=O)N2CCOC(C)(C)C2)n(C2CCC2)c1C(F)(F)F [Example 042, [3-(4-Chlorophenyl)-1-cyclobutyl-4-methyl-5-(trifluoromethyl)-1H-pyrrol-2-yl]-(2,2-dimethyl-morpholin-4-yl)-methanone] | 75 to 95 |
| Cc1c(-c2ccc(Cl)cc2)c(C(=O)N2CCOCC2)n(C2CC2)c1C(F)(F)F [Example 043, [3-(4-Chlorophenyl)-1-cyclopropyl-4-methyl-5-(trifluoromethyl)-1H-pyrrol-2-yl]-morpholin-4-yl-methanone] | 75 to 95 |
| Cc1c(-c2ccc(Cl)cc2)c(C(=O)N2CCS(=O)(=O)C(C)(C)C2)n(C2CC2)c1C(F)(F)F [Example 044, [3-(4-Chlorophenyl)-1-cyclopropyl-4-methyl-5-(trifluoromethyl)-1H-pyrrol-2-yl]-(2,2-dimethyl-1,1-dioxo-[1,4]thiazinan-4-yl)-methanone] | 75 to 95 |
| CC(C)Cn1c(C(F)(F)F)cc(-c2ccc(F)cc2)c1C(=O)N1CCOC(C)(C)C1 [Example 045, (2,2-Dimethyl-morpholin-4-yl)-[3-(4-fluorophenyl)-1-(2-methyl-propyl)-5-(trifluoromethyl)-1H-pyrrol-2-yl]-methanone] | 75 to 95 |
| CC(C)Cn1c(C(F)(F)F)cc(-c2ccc(F)cc2)c1C(=O)N(C)C1CCOCC1 [Example 046, 3-(4-Fluorophenyl)-N-methyl-1-(2-methyl-propyl)-N-tetrahydro-pyran-4-yl-5-(trifluoromethyl)-1H-pyrrole-2-carboxylic acid amide] | > 95 |
| Cc1cc(CN(C)C(=O)c2c(-c3ccc(F)cc3)cc(C(F)(F)F)n2CC(C)C)no1 [Example 047, 3-(4-Fluorophenyl)-N-methyl-N-[(5-methyl-isoxazol-3-yl)-methyl]-1-(2-methyl-propyl)-5-(trifluoromethyl)-1H-pyrrole-2-carboxylic acid amide] | > 95 |
| Cc1c(-c2ccc(Cl)cc2)c(C(=O)N(C)Cc2ccncn2)n(CC(C)C)c1C(F)(F)F [Example 048, 3-(4-Chlorophenyl)-N,4-dimethyl-1-(2-methyl-propyl)-N-(pyrimidin-4-yl-methyl)-5-(trifluoromethyl)-1H-pyrrole-2-carboxylic acid amide] | > 95 |
| Cc1cnc(CN(C)C(=O)c2c(-c3ccc(F)cc3)cc(C(F)(F)F)n2CC(C)C)cn1 [Example 049, 3-(4-Fluorophenyl)-N-methyl-1-(2-methyl-propyl)-N-[(5-methyl-pyrazin-2-yl)-methyl]-5-(trifluoromethyl)-1H-pyrrole-2-carboxylic acid amide] | > 95 |
| CC(C)Cn1c(C(F)(F)F)cc(-c2ccc(F)cc2)c1C(=O)N(C)CCS(C)(=O)=O [Example 050, 3-(4-Fluorophenyl)-N-methyl-1-(2-methyl-propyl)-N-(2-methylsulfonyl-ethyl)-5-(trifluoromethyl)-1H-pyrrole-2-carboxylic acid amide] | 75 to 95 |
| Cc1c(-c2ccc(Cl)cc2)c(C(=O)N(C)C2(C(N)=O)CC2)n(CC(C)C)c1C(F)(F)F [Example 051, N-(1-Carbamoyl-cyclopropyl)-3-(4-chlorophenyl)-N,4-dimethyl-1-(2-methyl-propyl)-5-(trifluoromethyl)-1H-pyrrole-2-carboxylic acid amide] | > 95 |
